Experimental data published in patent US7622275B2, “Aequorin as a growth marker in yeast” (Sanofi-Aventis Deutschland GmbH, priority 2001, dated 2009).
Like-named read-outs stand apart in the source and are kept apart here.

Columns and labels:
[1] = test system: S. cerevisiae
[2] = test system: S. cerevisiae; settings: 100 μM in SC Glucose-Trp
[3] = test system: S. cerevisiae; assay: Aequorin growth marker signal upon toxic treatment (pYX132TPI-AEQ strain); type: cell-based, Saccharomyces cerevisiae; settings: for Aequorin signal: 100 μM in SC Glucose-Trp; for Aequorin difference between toxic treatment and normal growth: 100 μM
Method: As a yeast strain W303 MAT a, far::hisG, sst2::URA3^FOA, fus1::HIS3 was used.
The cells are distributed and/or grown in a white 96-well plate, in a volume of 100 μl.
30 minutes before the measurement time point, 10 μl of a 5 μM coelenterazine (Molecular Probes) solution is distributed in each well (to obtain a 0.5 μM final concentration) to load the cells.
The plate is then incubated at 30° C. for the last 30 minutes.
Aequorin detection is made in a luminometer with injecting system (Luminoskan, Labsystems). For each well, immediately after injection of a 10 mM CaCl2 solution (1 M CaCl2 diluted in lysis buffer Y-PER from Pierce), the luminescent signal is integrated for 15 seconds.
To avoid the intermediate step of loading, it is possible to introduce coelenterazine in the medium at the beginning of the assay: coelenterazine is added at a concentration of 0.5 μM.
(i.e. only half of the normal signal), and the starving cells give a signal of 64 r.l.u.

Compound: O=C1Cc2cc(CCN3CCN(c4nsc5ccccc45)CC3)c(Cl)cc2N1 [Ziprasidone]
- toxic effects on S. cerevisiae [1]: high toxic effects
- OD630 ([1]; 100 μM in SC Glucose-Trp, after 24 hours treatment, normal growth over 1): 0.5-0.7
- β-Galactosidase signal ([2]; after 5 hours of treatment, normal growth 276, starving cells 64): 116 r.l.u.
- β-Galactosidase signal ([2]; after 24 hours treatment, non treated cells 2275): 1923 r.l.u.
- Aequorin signal ([3]; after 5 hours of treatment, normal growth 138, starving cells 16): 10 r.l.u.
- Aequorin signal ([3]; after 24 hours treatment, normal growth 175): 50 r.l.u.
- Aequorin difference between toxic treatment and normal growth ([3]; after 5 hours of treatment): 10 fold
- Aequorin difference between toxic treatment and normal growth ([3]; after 24 hours treatment): 3.5 fold
